Entries after “also recorded” stand apart in the source; their conditions may differ.
Experiment: Body weight in the neonatal PCP mouse model of schizophrenia
[1] = PND 35-37, postnatal BCP 10 mg/kg 1 h after PCP

What does the source list for “trans-(1R,9S)-8-methylene-4,11,11trimethylbicyclo[7.2.0]undec-4-ene [BCP]”?
body weight at PND 17 (BCP 10 mg/kg 1 h after PCP, ethanol-based vehicle, PCP+BCP vs PCP): no significant difference between groups treated with PCP with or without BCP; body weight (BCP 10 mg/kg 1 h after PCP, postnatal, DMSO-based vehicle): completely reversed the effect of PCP on body weight; body weight (BCP 10 mg/kg injected 1 h after each PCP 5 mg/kg dose, PND 3-16, Cremophor EL:ethanol:saline vehicle, weight PND 3-17): significantly reversed the inhibitory effect of PCP on body weight; also recorded: reversed the reduction in body weight during the first week of life; also recorded: did not restore the weight completely; effect on PCP-induced reduction of body weight, males (PND 17, BCP 10 mg/kg 1 h after PCP, ethanol-based vehicle): appeared to be more prominent; body weight, females [1]: significantly reversed the effect of PCP on female body weight; body weight, males [1]: no significant difference in male body weight between the groups; body weight (PND 104, postnatal PCP, BCP 5 mg/kg PND 43-61): did not increase body weight in females and males, rather reduced body weight of PCP+BCP treated group; body weight of adolescent mice (postnatal PCP, BCP 5 mg/kg injected twice a week PND 43-61 (DMSO:Cremophor EL:saline)): did not affect body weight of adolescent mice; body weight, male mice (postnatal day 83, oral BCP 10 mg/kg twice a week, PND 43-62): did not affect body weight of male mice at postnatal day 83; also recorded: did not affect their body weight

— US20190070124A1, “COMPOSITIONS OF CB2 RECEPTOR SELECTIVE AGONISTS FOR TREATMENT OF MENTAL DISORDERS” (priority 2016, published 2019)
